The results in this text go back to US9944607B2, “Thiohydantoin derivatives and uses thereof” (Whitehead Institute for Biomedical Research, priority 2012, dated 2018).

In brackets after ≈: the same amount, converted by molar mass. Read-outs that look alike come from different tables or passages of the source.

Data set [1] relates to Saccharomyces cerevisiae W303. Nature of the data set: Secondary S. cerevisiae inhibition in glucose media (OD600). The format is cell-based. The settings on record: Saccharomyces cerevisiae.
Description: Cell Lines. • Candida albicans CaCi-2; a drug-resistant clinical isolate was provided by the Whitehead Institute (Redding et al., Clin. Infect. Dis. 1994, 18(2):240-2). This strain was used for the primary assay. • Candida albicans CaCi-17; a strongly drug-resistant clinical isolate was provided by the Whitehead Institute (Redding et al., Clin. Infect. Dis. 1994, 18(2):240-2). This strain was used for the primary assay • Saccharyomyces cerevisiae W303-1a (ATCC 208352); a well-characterized Saccharomyces strain used for determination of glycolytic vs. respiratory metabolism, as well as in the mitochondrial disruption assay. • Candida glabrata (ATCC 2001); used for determination of glycolytic vs. respiratory metabolism. • NIH-3T3 mammalian fibroblasts (ATCC; CRL no.1658); used for mammalian toxicity assays. […]
Saccharomyces, while not a major human pathogen, is a useful lab model with well-developed genetic tools available. Candida glabrata is an increasingly prominent clinical problem for immune-compromised patients but with fewer genetic tools available with which to study it. These organisms can utilize alternative metabolic pathways to support growth and survival depending on the carbon source. By comparing the concentration-dependent inhibition of yeast growth in glycerol relative to glucose media, a quantitative assessment of a compound's ability to disrupt respiration can be determined. […].
(§1) Procedures • Use a Thermo Combi nL to dispense 20 μL/well of assay media into all wells. • Add 2 μL of Amphotericin B to control wells. • Pin 100 nL of test compound from compound plates into assay plates using a CyBi-Well pin tool. • Dispense 20 μL/well of culture into the assay media in all wells. • Incubate the plates in a humidified (90% humidity) Liconic incubator at 37° C. without agitation for 48 hours. • Shake plates briefly. • Read OD600 of wells on a standard plate reader as measure of relative fungal growth. Envision (Perkin Elmer) plate reader settings: Ex Photometric 600, Top read. Secondary Glucose Assay Protocol (AID 623971, 623967, 624013, 624025) Materials and Reagents
Clear, flat bottom, black 384-well plates (Corning, Catalog No. 3712BC; Lot No. 35808016); Amphotericin B (Sigma, Catalog no. A2411) 15 mM stock solution in DMSO; Pen/Strep (Gibco, Catalog No. 10378-016; Lot no21040170) 100× in PBS.
Synthetic defined growth medium. Complete Supplement Mixture; (Sunrise Science, Catalog No. 1001-100); Yeast Nitrogen Base without ammonium sulfate (MP Biomedicals, Catalog No. 4027-012); Glucose (Sigma, Catalog No. G7021). • Prepare medium by dissolving 0.79 g of Complete Supplement Mixture and 1.7 g of Yeast Nitrogen Base in 800 mL of water. • Add 20 g of glucose. Adjust final volume to 1000 mL. Filter sterilize.
Fungal Inoculum. Test Strains: C. glabrata (ATCC 2001) and Saccharomyces cerevisiae W303. • Inoculate […] of yeast from cryopreserved stock into a 250 mL shaker flask containing 20 mL of growth medium. Shake at 30° C. overnight (about 16 hours). • Read OD 600 of 1 mL of fungal culture in a cuvette using a standard optical density reader (Eppendorf BioPhotometer Plus), with growth medium as a background blank. • Dilute to desired volume of fungal inoculum to produce an OD600 reading of 0.005 (S. cerevisiae) or 0.004 (C. glabrata).
as §1, with “read. 4.5.” for “read.”, “Mitochondrial Disruption” for “Glucose”, “Assay” for “Assay Protocol”, “No. 624062” for “623971, 623967, 624013, 624025) Materials”, “624068)” for “Reagents”

Data set [2] relates to Candida albicans CaCi-2. The data set can be described thus: Primary assay: C. albicans CaCi-2 growth inhibition (Alamar Blue). The data set is classed as cell-based. As to conditions: for IC50: Candida albicans.
Data set [3] concerns NIH-3T3 mammalian fibroblasts. Nature of the data set: Counterscreen mammalian cell toxicity assay (Alamar Blue). As to conditions: for IC50: Mus musculus. The format is cell-based, murine. A digest of the protocol: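 Quiescent NIH-3T3 fibroblasts, cultured overnight, exposed to 100 nL pinned compound for 48 h at 37° C, 5% CO2. Alamar Blue added to 1:200 final, 2-3 h further incubation; fluorescence (RFU) read as relative cell growth.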

A short description of data set [4]: Solubility in PBS pH 7.4 with 1% DMSO. The settings on record: for solubility at 24 h: pH 7.4, aqueous buffer, kinetic from dmso stock; for PBS Solubility: PBS pH 7.4 with 1% DMSO, 24 hours, room temperature. A digest of the protocol: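 Compounds at 100 μM in duplicate in PBS pH 7.4 containing 1% DMSO, shaken 24 hours at room temperature. Concentration measured by UPLC-MS with SIR detection, fitted to a two-point calibration from matching 100% DMSO samples.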

Setting [5] is: phosphate buffered saline with 1% DMSO.

With `CCOC(=O)N1C(=O)C2(CCCCC2)N(c2ccc(F)cc2)C1=S` [CID 56604860, Ethyl 1-(4-fluorophenyl)-4-oxo-2-thioxo-1,3-diazaspiro[4.5]decane-3-carboxylate], the 50% inhibitory concentration (IC50) is above 3 µM in data set [1] (W303, read-out: Growth inhibition of S. cerevisiae on glucose IC50) and above 26 µM in data set [3] (NIH3T3, read-out: Murine 3T3 fibroblasts growth inhibition (fibroblast toxicity) IC50). Also, the “Fold Selective (Anti-target IC50/Target IC50), fibroblast toxicity vs CaCi-2 growth inhibition” value in data set [2] (Table 12) is listed as above 650x. Further, the “Toxicity against mammalian fibroblasts (in words)” value in data set [3] (at concentrations up to 26 μM) is “no apparent toxicity”. The compound further had a solubility at 24 h in data set [4] (setting [5]) of 1.1 µM (≈ 0.385 µg/mL).
With `CCOC(=O)N1C(=O)C2(CCCCC2)N(c2ccc(C)cc2)C1=S` [compound 3889161], the IC50 in data set [1] (W303, 48 h, read-out: Growth Inhibition Activity, IC50 (μM), S. cerevisiae (n = 3) On glucose) was above 3 µM; in data set [2] (CACI2, 48 h, read-out: Growth Inhibition Activity, IC50 (μM), C. albicans (n = 3) CaCi-2) it was 0.3 µM. Besides, the “Growth Inhibition Activity, IC50 (μM), 3T3 Fibroblasts (n = 1)” value in data set [3] (Table 3, n = 1, 48 hours, tested up to 26 μM) is recorded as “Inactive”; in data set [3] (Table 4, n = 1, 48 hours, tested up to 26 μM), “Inactive”; in data set [3] (Table 5, n = 1, 48 hours, tested up to 26 μM), “Inactive”; in data set [3] (Table 6, n = 1, 48 hours, tested up to 26 μM) it was “Inactive”; in data set [3] (Table 7, n = 1, 48 hours, tested up to 26 μM) it was “Inactive”. The “PBS Solubility” value in data set [4] (Table 4), in data set [4] (Table 5), in data set [4] (Table 6) and in data set [4] (Table 7) was below 1.0 µM throughout. In data set [4] (setting [5]), this compound returned a solubility at 24 h below 1 µM.
Turning to `CCOC(=O)N1C(=O)C2(CCCCC2)N(c2cccc(C)c2)C1=S` [compound 56604823], the IC50 in data set [1] (W303, Table 8, n = 3, glucose media, 48 hours, tested up to 3 μM, read-out: Growth Inhibition Activity, IC50 (μM), S. cerevisiae (n = 3) On glucose) was above 3 µM; in data set [2] (CACI2, Table 4, n = 3, 48 hours, tested up to 26 μM, read-out: Growth Inhibition Activity, IC50 (μM), C. albicans (n = 3) CaCi-2), 0.2 µM; in data set [3] (NIH3T3, read-out: Growth Inhibition Activity, IC50 (μM), 3T3 Fibroblasts (n = 1), Table 4, n = 1, 48 hours, tested up to 26 μM), 24.2 µM. In data set [4] (setting [5]), this compound showed a solubility at 24 h of 2.6 µM (≈ 0.901 µg/mL).
As to `C/C=C/C1[C@H]2C[C@@H](C)CC[C@@H]2C(C)=C[C@H]1C(=O)c1c(O)c(-c2ccc(O)cc2)c[nH]c1=O` (stereo partly shown) [ilicicolin H, reference compound], the IC50 in data set [1] (W303, figure legends and Tables 9, 10, 13, AID 623971, read-out: Growth inhibition of S. cerevisiae on glucose IC50) was above 3 µM; in data set [2] (CACI2, Tables 9, 10, 12, AID 623899, read-out: C. albicans CaCi-2 growth inhibition IC50) it was above 3 µM; in data set [3] (NIH3T3, Tables 9, 10, 12, AID 602394, read-out: Murine 3T3 fibroblasts growth inhibition (fibroblast toxicity) IC50), 10 µM. In data set [4], this compound came in with a solubility at 24 h below 1 µM.
